The source of these data is patent US20110144323A1, “AMORPHOUS AND CRYSTALLINE FORMS OF SMILAGENIN AND ITS HYDRATES” (PHYTOPHARM PLC, priority 2004, published 2011).

This data set is described as follows: Vapour sorption studies. The class given is physicochemical. An excerpt:
As is well known, a channel hydrate is a hydrate in which the crystal lattice of the molecule forms a channel or cage enclosing a void which can wholly or partially accommodate water (or solvent) molecules. The stoichiometric (molar) ratio of smilagenin:water at any particular time will depend on such factors as the humidity of the surrounding atmosphere, as the water molecules are generally free to enter or leave the void.

Turning to `C[C@@H]1CC[C@@]2(OC1)O[C@H]1C[C@H]3[C@@H]4CC[C@@H]5C[C@@H](O)CC[C@]5(C)[C@H]4CC[C@]3(C)[C@H]1[C@@H]2C` [Crystalline Form VI, smilagenin], the “hygroscopicity in vapour sorption study” value (FIG. 11) was “hygroscopic”. For the same molecule, under “at high humidity, i.e. a dihydrate”, the “water adsorbed, molar equivalents” value was “about 2 mol. eq. water”. The “water adsorbed in vapour sorption study” value (at high humidity, water reversibly lost at low humidity (FIG. 11)) is recorded as “up to 9 % water”.
